Several values for one entry are separate records, joined by “and”; a condition that tells them apart may be missing. Equal values may be shown once. Toxic doses and inconclusive results are not listed.
Test system: L1210 leukemia ip in BDF1 mice, survival T/C
Assay: NCI In Vivo Anticancer Drug Screen. Data for tumor model L1210 Leukemia (intraperitoneal) in B6D2F1 (BDF1) mice
Conditions: endpoint: mean survival time, higher = longer survival
Procedure, shortened: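 Value reflects the ratio of survival in compound-treated mice to survival in vehicle-treated controls, with both groups carrying the same transplanted tumor.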

[1] = dose: 75.0 mg/kg/injection, schedule: Q01DX001 (ip), vehicle: Klucel (hydroxypropylcellulose) (HPC)
[2] = dose: 150.0 mg/kg/injection, schedule: Q01DX001 (ip), vehicle: Klucel (hydroxypropylcellulose) (HPC)
[3] = dose: 100.0 mg/kg/injection, schedule: Q04DX003 (ip), vehicle: saline
[4] = dose: 200.0 mg/kg/injection, schedule: Q04DX003 (ip), vehicle: saline
[5] = dose: 100.0 mg/kg/injection, schedule: Q04DX003 (ip), vehicle: Klucel (hydroxypropylcellulose) (HPC)
[6] = dose: 200.0 mg/kg/injection, schedule: Q04DX003 (ip), vehicle: Klucel (hydroxypropylcellulose) (HPC)
[7] = dose: 400.0 mg/kg/injection, schedule: Q04DX003 (ip), vehicle: Klucel (hydroxypropylcellulose) (HPC)
[8] = dose: 400.0 mg/kg/injection, schedule: Q01DX001 (ip), vehicle: carboxymethylcellulose (CMC)
[9] = dose: 100.0 mg/kg/injection, schedule: Q01DX009 (ip), vehicle: Klucel (hydroxypropylcellulose) (HPC)
[10] = dose: 200.0 mg/kg/injection, schedule: Q01DX009 (ip), vehicle: Klucel (hydroxypropylcellulose) (HPC)
[11] = dose: 400.0 mg/kg/injection, schedule: Q01DX009 (ip), vehicle: Klucel (hydroxypropylcellulose) (HPC)

## S=Cc1cccc2c1CCCC2
dose: 100.0 mg/kg/injection, schedule: Q01DX009 (ip), vehicle: saline
  T/C: 111 % of control
dose: 200.0 mg/kg/injection, schedule: Q01DX009 (ip), vehicle: saline
  T/C: 100 % of control
dose: 400.0 mg/kg/injection, schedule: Q01DX009 (ip), vehicle: saline
  T/C: 97 % of control

## CC(=O)Nc1c(C)cc(C)c(F)c1Br
dose: 37.5 mg/kg/injection, schedule: Q01DX001 (ip), vehicle: Klucel (hydroxypropylcellulose) (HPC)
  T/C: 97 % of control
[1]
  T/C: 95 % of control
[2]
  T/C: 95 % of control

## CC1C(=O)CC(=O)C1=O (stereo not given)
dose: 50.0 mg/kg/injection, schedule: Q01DX009 (ip), vehicle: saline sonified
  T/C: 104 % of control
dose: 100.0 mg/kg/injection, schedule: Q01DX009 (ip), vehicle: saline sonified
  T/C: 117 % of control
[3]
  T/C: 100 % of control
dose: 200.0 mg/kg/injection, schedule: Q01DX009 (ip), vehicle: saline sonified
  T/C: 104 % of control
[4]
  T/C: 100 % of control

## O=C(O)CCC1(CCC(=O)O)OCCO1.[Ag]
dose: 9.38 mg/kg/injection, schedule: Q01DX001 (ip), vehicle: other
  T/C: 97 % of control
dose: 18.75 mg/kg/injection, schedule: Q01DX001 (ip), vehicle: other
  T/C: 97 % of control
dose: 37.5 mg/kg/injection, schedule: Q01DX001 (ip), vehicle: other
  T/C: 100 % of control

## C=C1CCCC(O)CCC1
dose: 75.0 mg/kg/injection, schedule: Q01DX001 (ip), vehicle: other
  T/C: 102 % of control
dose: 150.0 mg/kg/injection, schedule: Q01DX001 (ip), vehicle: other
  T/C: 98 % of control
dose: 300.0 mg/kg/injection, schedule: Q01DX001 (ip), vehicle: other
  T/C: 96 % of control

## CCOC(=O)/C(N=O)=C(\O)c1ccc2ccccc2n1
dose: 25.0 mg/kg/injection, schedule: Q01DX009 (ip), vehicle: water
  T/C: 115 % of control
dose: 50.0 mg/kg/injection, schedule: Q01DX009 (ip), vehicle: water
  T/C: 101 % of control
dose: 100.0 mg/kg/injection, schedule: Q01DX009 (ip), vehicle: water
  T/C: 108 % of control
dose: 200.0 mg/kg/injection, schedule: Q01DX009 (ip), vehicle: water
  T/C: 89 % of control
dose: 400.0 mg/kg/injection, schedule: Q01DX009 (ip), vehicle: water
  T/C: 94 % of control

## Cc1ccc2[nH]c(CC#N)cc2c1
dose: 100.0 mg/kg/injection, schedule: Q04DX002 (ip), vehicle: Klucel (hydroxypropylcellulose) (HPC)
  T/C: 104 % of control
dose: 200.0 mg/kg/injection, schedule: Q04DX002 (ip), vehicle: Klucel (hydroxypropylcellulose) (HPC)
  T/C: 93 % of control
dose: 400.0 mg/kg/injection, schedule: Q04DX002 (ip), vehicle: Klucel (hydroxypropylcellulose) (HPC)
  T/C: 100 % of control

## Cn1cc([N+](=O)[O-])ccc1=O
[5]
  T/C: 110 % of control
[6]
  T/C: 116 % of control
[7]
  T/C: 121 % of control

## O=C(Nc1ccc(OP(=O)(O)O)cc1)c1ccc(C(=O)Nc2ccc(OP(=O)(O)O)cc2)cc1
dose: 2.5 mg/kg/injection, schedule: Q01DX Z (ip), vehicle: water
  T/C: 96 % of control
dose: 5.0 mg/kg/injection, schedule: Q01DX Z (ip), vehicle: water
  T/C: 104 % of control
dose: 7.5 mg/kg/injection, schedule: Q01DX Z (ip), vehicle: water
  T/C: 93 % of control
dose: 10.0 mg/kg/injection, schedule: Q01DX Z (ip), vehicle: water
  T/C: 93 % of control
dose: 18.7 mg/kg/injection, schedule: Q01DX Z (ip), vehicle: water
  T/C: 104 % of control

## NC1=NC(c2ccccc2)N(c2ccccc2Cl)C(N)=N1 (stereo not given)
[1]
  T/C: 97 % of control
[2]
  T/C: 94 % of control

## CCOC(=O)N1C2CC=CCC1C1(c3ccccc3)OC2(c2ccccc2)c2ccccc21
dose: 100.0 mg/kg/injection, schedule: Q04DX002 (ip), vehicle: DMSO
  T/C: 96 % of control

## CC1(C)CCOc2ccccc21
dose: 50.0 mg/kg/injection, schedule: Q01DX009 (ip), vehicle: saline with Tween-80
  T/C: 88 % of control
dose: 100.0 mg/kg/injection, schedule: Q01DX009 (ip), vehicle: saline with Tween-80
  T/C: 94 % of control

## CN(C=O)c1ccccc1C(=O)O
dose: 100.0 mg/kg/injection, schedule: Q04DX003 (ip), vehicle: saline with Tween-80
  T/C: 97 % of control
dose: 200.0 mg/kg/injection, schedule: Q04DX003 (ip), vehicle: saline with Tween-80
  T/C: 97 % of control
dose: 400.0 mg/kg/injection, schedule: Q04DX003 (ip), vehicle: saline with Tween-80
  T/C: 100 % of control

## c1ccc(Cn2nnc(-c3ccccc3)n2)cc1
[3]
  T/C: 97 % of control
[4]
  T/C: 94 % of control
dose: 400.0 mg/kg/injection, schedule: Q04DX003 (ip), vehicle: saline
  T/C: 89 % of control

## COc1cc2c(cc1NC(=O)N(CCCl)N=O)-c1ccccc1C2
dose: 22.0 mg/kg/injection, schedule: Q01DX009 (ip), vehicle: carboxymethylcellulose (CMC)
  T/C: 150 % of control
dose: 33.0 mg/kg/injection, schedule: Q01DX009 (ip), vehicle: carboxymethylcellulose (CMC)
  T/C: 152 % of control
dose: 50.0 mg/kg/injection, schedule: Q01DX009 (ip), vehicle: carboxymethylcellulose (CMC)
  T/C: 169 % of control
dose: 75.0 mg/kg/injection, schedule: Q01DX009 (ip), vehicle: carboxymethylcellulose (CMC)
  T/C: 152 % of control
dose: 118.0 mg/kg/injection, schedule: Q01DX009 (ip), vehicle: carboxymethylcellulose (CMC)
  T/C: 250 % of control
dose: 177.0 mg/kg/injection, schedule: Q01DX001 (ip), vehicle: other
  T/C: 123 % of control
dose: 177.0 mg/kg/injection, schedule: Q01DX009 (ip), vehicle: carboxymethylcellulose (CMC)
  T/C: 256 % of control
dose: 266.0 mg/kg/injection, schedule: Q01DX001 (ip), vehicle: carboxymethylcellulose (CMC)
  T/C: 151 % of control
dose: 266.0 mg/kg/injection, schedule: Q01DX001 (ip), vehicle: other
  T/C: 155 % of control
dose: 266.0 mg/kg/injection, schedule: Q01DX009 (ip), vehicle: carboxymethylcellulose (CMC)
  T/C: 284 % of control
[8]
  T/C: 173 % of control
dose: 400.0 mg/kg/injection, schedule: Q01DX001 (ip), vehicle: other
  T/C: 170 % of control
dose: 400.0 mg/kg/injection, schedule: Q01DX009 (ip), vehicle: carboxymethylcellulose (CMC)
  T/C: 196 % of control
dose: 600.0 mg/kg/injection, schedule: Q01DX001 (ip), vehicle: carboxymethylcellulose (CMC)
  T/C: 196 % of control
dose: 600.0 mg/kg/injection, schedule: Q01DX001 (ip), vehicle: other
  T/C: 164 % of control

## Cc1ccc(S(=O)(=O)N2CCCC(=O)c3ccccc32)cc1
dose: 100.0 mg/kg/injection, schedule: Q01DX001 (ip), vehicle: carboxymethylcellulose (CMC)
  T/C: 107 % of control
dose: 200.0 mg/kg/injection, schedule: Q01DX001 (ip), vehicle: carboxymethylcellulose (CMC)
  T/C: 100 % of control
[8]
  T/C: 102 % of control

## Oc1ccc(C2C=CCC2)cc1C1C=CCC1 (stereo not given)
[9]
  T/C: 105 % of control
[5]
  T/C: 100 % of control
[10]
  T/C: 100 % of control
[6]
  T/C: 96 % of control
[11]
  T/C: 94 % of control
[7]
  T/C: 109 % of control

## CC[CH2][Sn]([Cl])([Cl])[CH2]CC
dose: 0.13 mg/kg/injection, schedule: Q01DX009 (ip), vehicle: saline
  T/C: 98 % of control
dose: 0.25 mg/kg/injection, schedule: Q01DX009 (ip), vehicle: saline
  T/C: 112 % of control
dose: 0.5 mg/kg/injection, schedule: Q01DX009 (ip), vehicle: saline
  T/C: 105 % of control and 108 % of control
dose: 1.0 mg/kg/injection, schedule: Q01DX009 (ip), vehicle: saline
  T/C: 101 % of control
dose: 2.0 mg/kg/injection, schedule: Q01DX009 (ip), vehicle: saline
  T/C: 101 % of control
dose: 4.0 mg/kg/injection, schedule: Q01DX009 (ip), vehicle: saline
  T/C: 104 % of control

## BrC1CC/C=C\CCC1Br (stereo not given)
[9]
  T/C: 93 % of control
[5]
  T/C: 105 % of control
[10]
  T/C: 87 % of control
[6]
  T/C: 91 % of control
[11]
  T/C: 93 % of control
[7]
  T/C: 109 % of control

## CS(=O)Cc1cccc2ccccc12 (stereo not given)
dose: 50.0 mg/kg/injection, schedule: Q04DX003 (ip), vehicle: Klucel (hydroxypropylcellulose) (HPC)
  T/C: 117 % of control
dose: 100.0 mg/kg/injection, schedule: Q01DX001 (ip), vehicle: Klucel (hydroxypropylcellulose) (HPC)
  T/C: 98 % of control
[5]
  T/C: 104 % of control
dose: 200.0 mg/kg/injection, schedule: Q01DX001 (ip), vehicle: Klucel (hydroxypropylcellulose) (HPC)
  T/C: 116 % of control
[6]
  T/C: 96 % of control
